pIC50: −log10 of the molar value.
Key:
[1] = target: T1, Cyclin-dependent kinase 2 (Homo sapiens, UniProt P24941); test: Inhibition of human CDK2 pretreated for 20 mins followed by [gamma-33P]-ATP addition and measured after 120 mins in presence of 10 uM ATP by radiometric Hot-SpotSM Kinase assay
[2] = target: T2, Cyclin-dependent kinase 6 (Homo sapiens, UniProt Q00534); test: Inhibition of human CDK6 pretreated for 20 mins followed by [gamma-33P]-ATP addition and measured after 120 mins in presence of 10 uM ATP by radiometric Hot-SpotSM Kinase assay
T2 sequence (Q00534 whole entry): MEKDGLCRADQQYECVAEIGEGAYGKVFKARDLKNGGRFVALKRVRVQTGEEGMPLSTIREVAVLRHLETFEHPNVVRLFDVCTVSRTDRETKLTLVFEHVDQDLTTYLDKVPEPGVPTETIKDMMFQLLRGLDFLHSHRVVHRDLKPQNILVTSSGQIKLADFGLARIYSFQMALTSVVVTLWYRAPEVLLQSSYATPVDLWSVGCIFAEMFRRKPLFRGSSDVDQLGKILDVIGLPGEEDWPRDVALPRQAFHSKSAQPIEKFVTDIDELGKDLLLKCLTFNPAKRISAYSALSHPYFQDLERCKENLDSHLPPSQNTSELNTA

[3] = target: T3, Receptor-type tyrosine-protein kinase FLT3 (Homo sapiens, UniProt P36888); test: Inhibition of human FLT3 using EAIYAAPFAKKK and [gamma-33P]-ATP as substrate pretreated for 20 mins followed by [gamma-33P]-ATP addition and measured after 120 mins in presence of 10 uM ATP by radiometric Hot-SpotSM Kinase assay
T3 sequence (P36888 whole entry): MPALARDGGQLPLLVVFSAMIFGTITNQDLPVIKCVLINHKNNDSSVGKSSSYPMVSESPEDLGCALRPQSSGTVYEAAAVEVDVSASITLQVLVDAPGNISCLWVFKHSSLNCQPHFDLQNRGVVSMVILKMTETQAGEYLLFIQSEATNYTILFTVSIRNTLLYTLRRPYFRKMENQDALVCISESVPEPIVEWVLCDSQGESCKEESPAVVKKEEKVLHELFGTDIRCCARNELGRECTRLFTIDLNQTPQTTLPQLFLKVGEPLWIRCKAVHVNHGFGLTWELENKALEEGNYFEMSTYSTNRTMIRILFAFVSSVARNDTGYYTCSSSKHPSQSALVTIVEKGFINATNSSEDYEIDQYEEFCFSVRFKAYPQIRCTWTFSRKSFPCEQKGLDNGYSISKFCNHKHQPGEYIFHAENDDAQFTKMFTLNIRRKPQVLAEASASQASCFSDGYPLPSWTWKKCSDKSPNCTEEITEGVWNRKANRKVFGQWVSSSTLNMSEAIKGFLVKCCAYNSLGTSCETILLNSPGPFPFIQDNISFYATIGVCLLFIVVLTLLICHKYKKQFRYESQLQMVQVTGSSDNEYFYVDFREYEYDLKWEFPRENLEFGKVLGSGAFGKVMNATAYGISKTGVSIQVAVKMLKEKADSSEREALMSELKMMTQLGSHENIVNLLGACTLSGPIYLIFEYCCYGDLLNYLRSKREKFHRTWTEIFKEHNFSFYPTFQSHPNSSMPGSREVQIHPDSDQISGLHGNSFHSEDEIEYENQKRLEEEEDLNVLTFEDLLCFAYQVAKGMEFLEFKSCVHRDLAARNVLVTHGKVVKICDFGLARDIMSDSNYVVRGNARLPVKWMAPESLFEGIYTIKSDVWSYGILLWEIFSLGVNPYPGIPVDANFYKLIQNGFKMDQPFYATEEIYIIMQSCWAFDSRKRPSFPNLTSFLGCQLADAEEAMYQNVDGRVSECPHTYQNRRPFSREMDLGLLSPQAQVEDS

[4] = target: T2, Cyclin-dependent kinase 6; test: Inhibition of human CDK6 assessed as enzyme activity at 0.123 uM pretreated for 20 mins followed by [gamma-33P]-ATP addition and measured after 120 mins in presence of 10 uM ATP by radiometric Hot-SpotSM Kinase assay; set-up: scale not given: the % may be the effect or the level left; conditions: time 140.0 min
[5] = target: T1, Cyclin-dependent kinase 2; test: Inhibition of human CDK2 assessed as enzyme activity at 0.123 uM pretreated for 20 mins followed by [gamma-33P]-ATP addition and measured after 120 mins in presence of 10 uM ATP by radiometric Hot-SpotSM Kinase assay; set-up: scale not given: the % may be the effect or the level left; conditions: time 140.0 min
[6] = tested on: MV4-11; test: Antiproliferative activity against human MV4-11 cells harboring FLT3 ITD mutant assessed as inhibition of cell growth incubated for 72 hrs by CellTiter-Glo luminescent assay; type: functional, cell-based; conditions: MV4-11, 72 h
[7] = tested on: BaF3; test: Antiproliferative activity against mouse BaF3 cells harboring FLT3 D835V mutant assessed as inhibition of cell growth incubated for 72 hrs; type: functional, cell-based; conditions: BaF3, 72 h
[8] = Cytotoxicity against mouse BaF3 cells assessed as inhibition of cell growth incubated for 72 hrs; type: toxicity, cell-based
[9] = Cytotoxicity against human PBMC cells assessed as inhibition of cell growth; type: toxicity, cell-based
[10] = tested on: HL-60; test: Antiproliferative activity against human HL-60 cells expressing low level wild type FLT3 assessed as inhibition of cell growth; type: functional, cell-based
[11] = tested on: MOLM-13; test: Antiproliferative activity against human MOLM-13 cells harboring FLT3 ITD mutant assessed as inhibition of cell growth; type: functional, cell-based
[12] = tested on: BaF3; test: cells; type: functional, cell-based; conditions: Mus musculus, BaF3, 72 h
Description: Antiproliferative activity against mouse BaF3 cells harboring FLT3 ITD mutant assessed as inhibition of cell growth incubated for 72 hrs

[13] = tested on: K562; test: Antiproliferative activity against human K562 cells deficit of oncogenic FLT3 assessed as inhibition of cell growth; type: functional, cell-based
[14] = tested on: BaF3; test: cells; type: functional, cell-based; conditions: Mus musculus, BaF3, 72 h; remark: listed apart in the source
Description: Antiproliferative activity against mouse BaF3 cells harboring FLT3 ITD/D835V mutant assessed as inhibition of cell growth incubated for 72 hrs

[15] = tested on: U-937; test: Antiproliferative activity against human U-937 cells expressing low level wild type FLT3 assessed as inhibition of cell growth; type: functional, cell-based
[16] = tested on: THP-1; test: Antiproliferative activity against human THP-1 cells expressing wild type FLT3 assessed as inhibition of cell growth; type: functional, cell-based
[17] = target: Receptor-type tyrosine-protein kinase FLT3 (Homo sapiens) (UniProt P36888); test: Inhibition of human FLT3 assessed as enzyme activity using EAIYAAPFAKKK and [gamma-33P]-ATP as substrate at 0.123 uM pretreated for 20 mins followed by [gamma-33P]-ATP addition and measured after 120 mins in presence of 10 uM ATP by radiometric Hot-SpotSM Kinase assay; set-up: scale not given: the % may be the effect or the level left; conditions: time 140.0 min
[18] = tested on: BaF3; test: cells; type: functional, cell-based; conditions: Mus musculus, BaF3, 72 h; remark: listed apart in the source
Description: Antiproliferative activity against mouse BaF3 cells harboring FLT3 ITD/N676D mutant assessed as inhibition of cell growth incubated for 72 hrs

[19] = tested on: BaF3; test: cells; type: functional, cell-based; conditions: Mus musculus, BaF3, 72 h; remark: listed apart in the source
Description: Antiproliferative activity against mouse BaF3 cells harboring FLT3 ITD/F691L mutant assessed as inhibition of cell growth incubated for 72 hrs

[20] = tested on: MV4-11; test: animal or person; type: functional, Homo sapiens; conditions: Mus musculus, MV4-11, 336 h, route po, time 2 weeks
Description: Antitumor activity against human MV4-11 cells xenografted in nu/nu mouse assessed as inhibition of tumor growth at 50 mg/kg, po qd for 2 weeks by vernier caliper analysis

[21] = Toxicity against nu/nu mouse xenografted with human MV4-11 cells assessed as animal's mortality at 50 mg/kg, po qd for 2 days; type: organism-based; conditions: in vivo, 48 h, time 2 day
[22] = Toxicity against nu/nu mouse xenografted with human MV4-11 cells assessed as decrease in body weight at 50 mg/kg, po qd for 2 weeks; type: organism-based; conditions: in vivo, 336 h

| pIC50 [3] | Activity [4] [%] | Activity [5] [%] | pIC50 [6] | Compound | also measured |
| --- | --- | --- | --- | --- | --- |
| 8.14 | – | – | – | CN1CCN(Cc2ccc(NC(=O)c3n[nH]cc3Nc3ccncn3)cc2)CC1 | pIC50 [1]: 7.64; pIC50 [2]: 7.84 |
| 7.95 | 88.8 | 82.3 | – | Cc1nc(Nc2c[nH]nc2C(=O)Nc2ccc(N3CCNCC3)cc2)cc(Oc2ccccc2)n1 | – |
| 7.54 | 94.3 | 84.8 | – | O=C(Nc1ccc(N2CCNCC2)cc1)c1n[nH]cc1Nc1cc(C2CCCCCC2)ncn1 | – |
| 7.72 | 58.4 | 53.1 | 6.89 | O=C(Nc1ccc(N2CCNCC2)cc1)c1n[nH]cc1Nc1cc(OC2CCCCC2)ncn1 | – |
| 8.11 | – | – | 6.96 | O=C(Nc1ccc(N2CCNCC2)cc1)c1n[nH]cc1Nc1cc(OC2CCCC2)ncn1 | pIC50 [1]: 6.87; pIC50 [2]: 6.80 |
| – | – | – | – | CO[C@@H]1[C@H](N(C)C(=O)c2ccccc2)C[C@H]2O[C@]1(C)n1c3ccccc3c3c4c(c5c6ccccc6n2c5c31)C(=O)NC4 [MIDOSTAURIN] | pIC50 [7]: 8.40; IC50 at 72 h [8]: 320 nM |
| – | – | – | 8.28 | CC(C)(C)c1cc(NC(=O)Nc2ccc(-c3cn4c(n3)sc3cc(OCCN5CCOCC5)ccc34)cc2)no1 [QUIZARTINIB] | pIC50 [7]: 7.00; pIC50 [9]: 5.90; pIC50 [10]: 6.11; IC50 at 72 h [8]: > 10000 nM; pIC50 [11]: 7.82; pIC50 [12]: 9.00; pIC50 [13]: 6.54; pIC50 [14]: 7.03; pIC50 [15]: 6.60; pIC50 [16]: 6.70 |
| 7.71 | 88.9 | 78.8 | 6.70 | CN1CCN(Cc2ccc(NC(=O)c3n[nH]cc3Nc3cc(C4CCCC4)ncn3)cc2)CC1 | – |
| 7.95 | 51.3 | 51 | 7.05 | O=C(Nc1ccc(N2CCNCC2)cc1)c1n[nH]cc1Nc1cc(OCC2CCCC2)ncn1 | – |
| 8.07 | – | – | 7.10 | O=C(Nc1ccc(N2CCNCC2)cc1)c1n[nH]cc1Nc1cc(C2CC2)ncn1 | pIC50 [1]: 6.71; pIC50 [2]: 6.90 |
| 7.60 | 86.4 | 76.5 | – | O=C(Nc1ccc(N2CCNCC2)cc1)c1n[nH]cc1Nc1cc(C2=CCOCC2)ncn1 | – |
| – | 91.5 | 78.3 | – | Cc1cc(Oc2ccccc2)nc(Nc2c[nH]nc2C(=O)Nc2ccc(N3CCNCC3)cc2)n1 | Activity [17]: 71.7% |
| – | 88.4 | 88.6 | – | Cc1cnc(Nc2c[nH]nc2C(=O)Nc2ccc(N3CCNCC3)cc2)nc1Oc1ccccc1 | Activity [17]: 83% |
| 7.23 | 93.3 | 83.3 | – | O=C(Nc1ccc(N2CCOCC2)cc1)c1n[nH]cc1Nc1cc(C2CCCC2)ncn1 | – |
| 7.53 | 92.6 | 71.4 | 6.68 | O=C(Nc1ccc(CN2CCOCC2)cc1)c1n[nH]cc1Nc1cc(C2CCCC2)ncn1 | – |
| 7.34 | 101 | 89.3 | – | O=C(Nc1ccc(N2CCNCC2)cc1)c1n[nH]cc1Nc1cc(-c2ccccc2)ncn1 | – |
| 7.81 | 86.3 | 79.3 | 7.00 | O=C(Nc1ccc(N2CCNCC2)cc1)c1n[nH]cc1Nc1cc(C2CCCC2)ncn1 | – |
| 7.67 | 72.9 | 69.5 | 7.00 | O=C(Nc1ccc(N2CCNCC2)cc1)c1n[nH]cc1Nc1cc(NC2CCCC2)ncn1 | – |
| 7.38 | 87.5 | 83.5 | – | O=C(Nc1ccc(N2CCNCC2)cc1)c1n[nH]cc1Nc1cc(-c2ccoc2)ncn1 | – |
| 7.54 | 58.1 | 54.6 | – | O=C(Nc1ccc(N2CCNCC2)cc1)c1n[nH]cc1Nc1cc(OC2CCCCCC2)ncn1 | – |

| Compound | pIC50 [3] | Activity [4] [%] | Activity [5] [%] | pIC50 [6] | also measured |
| --- | --- | --- | --- | --- | --- |
| CN1CCN(Cc2ccc(NC(=O)c3n[nH]cc3Nc3ncnc4[nH]ccc34)cc2)CC1 | – | – | – | 8.15 | pIC50 [18]: 7.14; pIC50 [7]: 7.41; pIC50 [9]: 6.90; pIC50 [10]: 6.11; IC50 at 72 h [8]: 155 nM; pIC50 [11]: 8.27; pIC50 [19]: 7.25; inhibition in vivo at 50 mg/kg [20]: 94.6%; Activity [21]: Toxic; pIC50 [12]: 7.42; Activity [22]: Toxic; pIC50 [13]: 6.10; pIC50 [14]: 8.10 |

Reference: ChEMBL document CHEMBL5370533 (Eur J Med Chem, 2023)
